We go through 25 molecules from US8258159B2, “Inhibitors of the α2β1/GPIa-IIa integrin” (The Trustees Of The University Of Pennsylvania, priority 2005, dated 2012).

*1 amine or outer side, *2 acyl side, *3 side chain or, on linkers, in order; H or OH if unused. Where a SMILES comes first, the peptide text is derived from it. Side-chain parts run from the residue outwards. [ ]: non-standard residue; d: D form. The star is where a group is joined. Cbz = O=C(OCc1ccccc1)*; Dap = NC[C@H](N)C(=O)O; CO = O=C([*:1])[*:2]; NHBn = c1ccc(CN*)cc1

The target in the assay is T1, α2β1 integrin (Homo sapiens, UniProt P05556+P17301).
T1 construct: endogenous in cells; host or cells: gel-filtered human platelets of a single donor
T1 sequence (P17301 30-1181): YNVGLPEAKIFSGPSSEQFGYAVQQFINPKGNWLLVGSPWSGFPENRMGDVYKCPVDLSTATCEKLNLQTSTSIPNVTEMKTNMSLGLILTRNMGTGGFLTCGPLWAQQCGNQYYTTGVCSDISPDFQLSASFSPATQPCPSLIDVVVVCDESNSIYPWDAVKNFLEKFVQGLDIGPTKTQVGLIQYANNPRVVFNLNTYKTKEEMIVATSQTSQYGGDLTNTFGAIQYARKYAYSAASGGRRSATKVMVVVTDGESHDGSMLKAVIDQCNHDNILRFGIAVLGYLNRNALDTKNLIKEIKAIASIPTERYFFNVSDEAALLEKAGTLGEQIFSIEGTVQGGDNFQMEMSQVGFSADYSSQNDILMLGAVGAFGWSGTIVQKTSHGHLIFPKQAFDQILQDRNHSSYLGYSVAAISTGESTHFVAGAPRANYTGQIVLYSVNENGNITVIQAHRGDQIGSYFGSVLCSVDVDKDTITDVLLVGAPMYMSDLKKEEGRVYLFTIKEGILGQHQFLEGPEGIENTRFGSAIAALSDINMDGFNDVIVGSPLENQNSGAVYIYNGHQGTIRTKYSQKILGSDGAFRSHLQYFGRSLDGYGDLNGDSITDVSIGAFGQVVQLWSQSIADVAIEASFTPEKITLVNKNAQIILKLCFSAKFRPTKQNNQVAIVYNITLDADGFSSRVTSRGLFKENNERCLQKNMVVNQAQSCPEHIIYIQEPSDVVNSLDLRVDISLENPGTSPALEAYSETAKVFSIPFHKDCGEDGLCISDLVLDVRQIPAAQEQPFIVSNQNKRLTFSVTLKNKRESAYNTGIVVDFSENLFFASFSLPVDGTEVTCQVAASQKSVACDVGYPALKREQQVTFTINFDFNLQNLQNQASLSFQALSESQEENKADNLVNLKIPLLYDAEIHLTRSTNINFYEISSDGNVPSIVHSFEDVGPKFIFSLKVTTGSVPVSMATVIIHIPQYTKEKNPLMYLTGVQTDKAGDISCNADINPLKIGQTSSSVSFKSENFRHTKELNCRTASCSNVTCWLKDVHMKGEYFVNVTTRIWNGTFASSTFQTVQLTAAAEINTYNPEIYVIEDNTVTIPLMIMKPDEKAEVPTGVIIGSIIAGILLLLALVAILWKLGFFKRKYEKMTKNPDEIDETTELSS
T1 sequence (P05556 21-798): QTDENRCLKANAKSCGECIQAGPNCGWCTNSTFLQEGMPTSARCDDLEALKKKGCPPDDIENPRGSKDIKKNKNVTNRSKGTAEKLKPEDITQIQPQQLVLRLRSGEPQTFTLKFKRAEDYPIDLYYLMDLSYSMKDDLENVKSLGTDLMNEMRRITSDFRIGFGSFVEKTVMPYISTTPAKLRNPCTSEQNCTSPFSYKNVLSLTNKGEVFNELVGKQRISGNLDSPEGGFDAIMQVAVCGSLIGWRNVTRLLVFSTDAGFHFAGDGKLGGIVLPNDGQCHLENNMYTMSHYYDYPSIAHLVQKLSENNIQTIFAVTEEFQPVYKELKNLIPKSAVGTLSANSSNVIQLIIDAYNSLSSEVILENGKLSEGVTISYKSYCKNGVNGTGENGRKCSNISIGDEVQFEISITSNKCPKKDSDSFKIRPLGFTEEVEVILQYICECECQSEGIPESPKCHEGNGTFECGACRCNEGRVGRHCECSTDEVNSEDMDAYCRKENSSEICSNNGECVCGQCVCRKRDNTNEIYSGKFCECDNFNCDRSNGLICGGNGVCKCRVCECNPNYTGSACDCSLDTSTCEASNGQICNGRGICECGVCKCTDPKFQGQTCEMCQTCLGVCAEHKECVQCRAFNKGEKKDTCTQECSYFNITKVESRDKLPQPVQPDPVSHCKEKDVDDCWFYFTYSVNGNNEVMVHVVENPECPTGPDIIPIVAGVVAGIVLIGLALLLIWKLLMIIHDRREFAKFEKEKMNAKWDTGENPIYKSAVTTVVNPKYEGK
Briefly: Platelet adhesion assay (human platelet adhesion to type I collagen). Type of assay: cell-based. To be noted: human platelet adhesion to type I (soluble, monomeric) collagen, static conditions; single donor; read-out: IC50. On the procedure: The inhibitory strength of the compounds of the present disclosure was analyzed as against platelet adhesion to type I collagen. Ninety-six well flat bottom microtiter plates (Immulon 2, Dynatech Laboratories, Chantilly, Va.) were coated with collagen, purified human fibrinogen, or bovine serum albumin, each dissolved in 50 mM NaHCO3 buffer, pH 8.0, containing 150 mM NaCl as previously described. See Bennett J S, Chan C, Vilaire G, Mousa S A, DeGrado W F. Agonist-Activated αvβ3 on Platelets and Lymphocytes Binds to the Matrix Protein Osteopontin. J Biol Chem. 272, 8137-814) (1997). Unoccupied protein binding sites on the wells were blocked with 5 mg/ml bovine serum albumin dissolved in the same buffer. Human platelets were isolated from blood anticoagulated with 0.1 volume 3.8% sodium citrate by gel-filtration using a 4 mM HEPES buffer, pH 7.4, containing 135 mM NaCl, 2.7 mM KCl, 5.6 mM glucose, 3.3 mM NaH2PO4, 0.35 mg/ml bovine serum albumin and various concentrations of CaCl2 or MgCl2 according to the experiment. One hundred μl aliquots of the gel-filtered platelet suspension containing 1-2×10^8 platelets were added to the protein-coated wells in the absence or presence of a platelet agonist. Following an incubation for 30 min at 37° C. without agitation, the plates were washed 4 times with the Tris-buffered NaCl, containing 2 mM MgCl2, pH 7.4, and the number of adherent platelets measured using the colorimetric assay reported by Bellavite P, Andrioli G, Guzzo P, et al. A colorimetric method for the measurement of platelet adhesion in microtiter plates. Anal Biochem. 216, 444-450 (1994). Briefly, 150 μl of a 0.1 M citrate buffer, pH 5.4, containing 5 mM p-nitrophenyl phosphate and 0.1% Triton X-100 was added to the wells after washing. After an incubation for 60 min at room temperature in the absence of ambient light, color was developed by the addition of 100 μl of 2N NaOH and, using EL800 Universal Microplate Reader (Bio-Tek Instruments, Inc., Winooski, Vt.), read in microtiter plate reader at 405 nm.
The potencies of the compounds of the present disclosure were determined by testing the ability of a range of concentrations of each compound to inhibit human platelet adhesion to soluble collagen under static conditions. Owing to the fact that soluble collagen is a specific ligand for α2β1 integrin, this is an accepted method of assessing α2β1 inhibition on platelets.
IC50 values were determined by using the platelets of a single donor. In cases where multiple assays were performed, the reported results reflect the average IC50 value derived from the separate assays.
With `O=C(NCc1ccccc1)NC[C@H](NC(=O)[C@@H]1C=CCN1S(=O)(=O)c1ccccc1)C(=O)O` (stereo in doubt) [Compound 52, 2-[(1-Benzenesulfonyl-2,5-dihydro-1H-pyrrole-2-carbonyl)-amino]-3-(3-benzyl-ureido)-propionic acid], the IC50 amounted to 143 nM.
In the case of `CC(C)(C)OC(=O)NC[C@H](NC(=O)[C@@H]1CCCN1S(=O)(=O)c1ccc([N+](=O)[O-])cc1)C(=O)O` [Compound 1, 3-tert-Butoxycarbonylamino-2-{[1-(4-nitro-benzenesulfonyl)-pyrrolidine-2-carbonyl]-amino}-propionic acid], the IC50 amounted to 2620 nM.
For the molecule `O=C(NC[C@H](NC(=O)[C@@H]1CCCN1S(=O)(=O)c1ccc([N+](=O)[O-])cc1)C(=O)O)OCc1ccccc1` [Compound 2, 3-Benzyloxycarbonylamino-2-{[1-(4-nitro-benzenesulfonyl)-pyrrolidine-2-carbonyl]-amino}-propionic acid], the IC50 is 2300 nM.
In the case of `O=C(NC[C@H](NC(=O)[C@@H]1CCCN1S(=O)(=O)c1ccc([N+](=O)[O-])cc1)C(=O)O)c1ccccc1` [Compound 3, 3-Benzoylamino-2-{[1-(4-nitro-benzenesulfonyl)-pyrrolidine-2-carbony]-amino}-propionic acid] it was 2310 nM; in that of `O=C(CCc1ccccc1)NC[C@H](NC(=O)[C@@H]1CCCN1S(=O)(=O)c1ccc([N+](=O)[O-])cc1)C(=O)O` [Compound 4, 2-{[1-(4-Nitro-benzenesulfonyl)-pyrrolidine-2-carbonyl]-amino}-3-(3-phenyl-propionylamino)-propionic acid], 4750 nM.
For `O=C(NCc1ccccc1)NC[C@H](NC(=O)[C@@H]1CCCN1S(=O)(=O)c1ccc([N+](=O)[O-])cc1)C(=O)O` [Compound 5, 3-(3-Benzyl-ureido)-2-{[1-(4-nitro-benzenesulfonyl)-pyrrolidine-2-carbonyl]-amino}-propionic acid], the IC50 is 105 nM.
In the case of `CC(C)(C)OC(=O)CC[C@H](NC(=O)[C@@H]1CCCN1S(=O)(=O)c1ccc([N+](=O)[O-])cc1)C(=O)O` [Compound 6, 2-{[1-(4-Nitro-benzenesulfonyl)-pyrrolidine-2-carbonyl]-amino}-pentanedioic acid 5-tert-butyl ester], the half-inhibitory concentration (IC50) came to 22300 nM.
As to `O=C(NCc1ccccc1Cl)NC[C@H](NC(=O)[C@@H]1CCCN1S(=O)(=O)c1ccc([N+](=O)[O-])cc1)C(=O)O` [Compound 7, 3-[3-(2-Chloro-benzyl)-ureido]-2-{[1-(4-nitro-benzenesulfonyl)-pyrrolidine-2-carbonyl]-amino}-propionic acid], the IC50 was 985 nM.
In the case of `O=C(NCc1ccc(Br)cc1)NC[C@H](NC(=O)[C@@H]1CCCN1S(=O)(=O)c1ccc([N+](=O)[O-])cc1)C(=O)O` [Compound 8, 3-[3-(4-Bromo-benzyl)-ureido]-2-{[1-(4-nitro-benzenesulfonyl)-pyrrolidine-2-carbonyl]-amino}-propionic acid] it was 1620 nM.
For the molecule `O=C(NC[C@H](NC(=O)[C@@H]1CCCN1S(=O)(=O)c1ccc([N+](=O)[O-])cc1)C(=O)O)Nc1ccccc1` [Compound 9, 2-{[1-(4-Nitro-benzenesulfonyl)-pyrrolidine-2-carbonyl]-amino}-3-(3-phenyl-ureido)-propionic acid], the IC50 is 3000 nM.
In the case of `O=C(NC[C@H](NC(=O)[C@@H]1CCCN1S(=O)(=O)c1ccc([N+](=O)[O-])cc1)C(=O)O)Nc1ccc([N+](=O)[O-])cc1` [Compound 10, 2-{[1-(4-Nitro-benzenesulfonyl)-pyrrolidine-2-carbonyl]-amino}-3-[3-(4-nitro-phenyl)-ureido]-propionic acid] it was 4600 nM.
With `O=C(NC[C@H](NC(=O)[C@@H]1CCCN1S(=O)(=O)c1ccc([N+](=O)[O-])cc1)C(=O)O)Nc1ccc(-c2ccccc2)cc1` [Compound 11, 3-(3-Biphenyl-4-yl-ureido)-2-{[1-(4-nitro-benzenesulfonyl)-pyrrolidine-2-carbonyl]-amino}-propionic acid], the half-inhibitory concentration (IC50) was found to be 5060 nM.
Then `COc1ccc(CNC(=O)NC[C@H](NC(=O)[C@@H]2CCCN2S(=O)(=O)c2ccc([N+](=O)[O-])cc2)C(=O)O)cc1` [Compound 12, 3-[3-(4-Methoxy-benzyl)-ureido]-2-{[1-(4-nitro-benzenesulfonyl)-pyrrolidine-2-carbonyl]-amino}-propionic acid], with 810 nM; and `COc1ccccc1CNC(=O)NC[C@H](NC(=O)[C@@H]1CCCN1S(=O)(=O)c1ccc([N+](=O)[O-])cc1)C(=O)O` [Compound 13, 3-[3-(2-Methoxy-benzyl)-ureido]-2-{[1-(4-nitro-benzenesulfonyl)-pyrrolidine-2-carbonyl]-amino}-propionic acid], with 1500 nM.
Then `COc1cccc(CNC(=O)NC[C@H](NC(=O)[C@@H]2CCCN2S(=O)(=O)c2ccc([N+](=O)[O-])cc2)C(=O)O)c1` [Compound 14, 3-[3-(3-Methoxy-benzyl)-ureido]-2-{[1-(4-nitro-benzenesulfonyl)-pyrrolidine-2-carbonyl]-amino}-propionic acid], with 790 nM; and `O=C(NCc1ccc(-c2ccccc2)cc1)NC[C@H](NC(=O)[C@@H]1CCCN1S(=O)(=O)c1ccc([N+](=O)[O-])cc1)C(=O)O` [Compound 15, 3-(3-Biphenyl-4-ylmethyl-ureido)-2-{[1-(4-nitro-benzenesulfonyl)-pyrrolidine-2-carbonyl]-amino}-propionic acid], with 4100 nM; and `CCCNC(=O)NC[C@H](NC(=O)[C@@H]1CCCN1S(=O)(=O)c1ccc([N+](=O)[O-])cc1)C(=O)O` [Compound 16, 2-{[1-(4-Nitro-benzenesulfonyl)-pyrrolidine-2-carbonyl]-amino}-3-(3-propyl-ureido)-propionic acid], with 3600 nM.
Take `CC(C)(C)NC(=O)NC[C@H](NC(=O)[C@@H]1CCCN1S(=O)(=O)c1ccc([N+](=O)[O-])cc1)C(=O)O` [Compound 17, 3-(3-tert-Butyl-ureido)-2-{[1-(4-nitro-benzenesulfonyl)-pyrrolidine-2-carbonyl]-amino}-propionic acid]: the half-maximal inhibitory concentration (IC50) came to 1700 nM.
Then `CC(C)(C)OC(=O)Nc1ccc(CNC(=O)NC[C@H](NC(=O)[C@@H]2CCCN2S(=O)(=O)c2ccc([N+](=O)[O-])cc2)C(=O)O)cc1` [Compound 18, 3-[3-(4-tert-Butoxycarbonylamino-benzyl)-ureido]-2-{[1-(4-nitro-benzenesulfonyl)-pyrrolidine-2-carbonyl]-amino}-propionic acid], with 1770 nM.
For the molecule `Nc1ccc(CNC(=O)NC[C@H](NC(=O)[C@@H]2CCCN2S(=O)(=O)c2ccc([N+](=O)[O-])cc2)C(=O)O)cc1` [Compound 19, 3-[3-(4-Amino-benzyl)-ureido]-2-{[1-(4-nitro-benzenesulfonyl)-pyrrolidine-2-carbonyl]-amino}-propionic acid], the IC50 came out at 460 nM.
Take `CC(=O)Nc1ccc(S(=O)(=O)N2CCC[C@H]2C(=O)N[C@@H](CNC(=O)NCc2ccccc2)C(=O)O)cc1` [Compound 21, 2-{[1-(4-Acetylamino-benzenesulfonyl)-pyrrolidine-2-carbonyl]-amino}-3-(3-benzyl-ureido)-propionic acid]: the IC50 came out at 131 nM.
On to `O=C(NCc1ccccc1)NC[C@H](NC(=O)[C@@H]1CCCN1S(=O)(=O)Cc1ccccc1)C(=O)O` [Compound 22, 3-(3-Benzyl-ureido)-2-[(1-phenylmethanesulfonyl-pyrrolidine-2-carbonyl)-amino]-propionic acid], for which the half-inhibitory concentration (IC50) worked out at 11700 nM.
`O=C(NCc1ccccc1)NC[C@H](NC(=O)[C@@H]1CCCN1C(=O)OCc1ccccc1)C(=O)O` [Compound 23, 2-[2-(3-Benzyl-ureido)-1-carboxy-ethylcarbarmoyl]-pyrrolidine-1-carboxylic acid benzyl ester] (Cbz-Pro-[Dap]([CO-NHBn])-OH): the concentration for half-maximal inhibition (IC50) stood at 28000 nM.
Consider `O=C(NCc1ccccc1)NC[C@H](NC(=O)[C@@H]1CCCN1S(=O)(=O)c1ccc(-c2ccccc2)cc1)C(=O)O` [Compound 24, 3-(3-Benzyl-ureido)-2-{[1-(biphenyl-4-sulfonyl)-pyrrolidine-2-carbonyl]-amino}-propionic acid], for which the IC50 was determined as 287 nM.
As to `Nc1ccc(S(=O)(=O)N2CCC[C@H]2C(=O)N[C@H](CNC(=O)NCc2ccccc2)C(=O)O)cc1` [Compound 25, 2-{[1-(4-Amino-benzenesulfonyl)-pyrrolidine-2-carbonyl]-amino}-3-(3-benzyl-ureido)-propionic acid], the IC50 turned out to be 2030 nM.

Usually IC50 stands for the concentration needed to halve the response being measured.
